Results: PubChem BioAssay (NCI)
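GI50 = concentration required for 50% inhibition of growth. TGI: total growth inhibition.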

Tests used:
Assay in all cases: inhibition of tumour cell growth, NCI panel, 384-well format
OVCAR-8 ovarian = tested on: OVCAR-8 ovarian
HCT-116 colon = tested on: HCT-116 colon
A498 renal = tested on: A498 renal
SN12C renal = tested on: SN12C renal
OVCAR-3 ovarian = tested on: OVCAR-3 ovarian
CAKI-1 renal = tested on: CAKI-1 renal
SK-MEL-28 melanoma = tested on: SK-MEL-28 melanoma
MDA-MB-231 breast = tested on: MDA-MB-231 breast
NCI-H522 lung = tested on: NCI-H522 lung
IGROV1 ovarian = tested on: IGROV1 ovarian
HL-60(TB) leukemia = tested on: HL-60(TB) leukemia
786-0 renal = tested on: 786-0 renal
RPMI-8226 leukemia = tested on: RPMI-8226 leukemia
NCI-H226 lung = tested on: NCI-H226 lung
NCI/ADR-RES ovarian = tested on: NCI/ADR-RES ovarian
HOP-62 NSCLC = tested on: HOP-62 NSCLC
TK-10 renal = tested on: TK-10 renal
RXF 393 renal = tested on: RXF 393 renal
SF-539 CNS = tested on: SF-539 CNS
EKVX NSCLC = tested on: EKVX NSCLC
KM12 colon = tested on: KM12 colon
HCT-15 colon = tested on: HCT-15 colon
UO-31 renal = tested on: UO-31 renal
MCF7 breast = tested on: MCF7 breast
LOX IMVI melanoma = tested on: LOX IMVI melanoma
SF-268 CNS = tested on: SF-268 CNS
HS 578T breast = tested on: HS 578T breast
MDA-MB-435 melanoma = tested on: MDA-MB-435 melanoma
K-562 leukemia = tested on: K-562 leukemia
MALME-3M melanoma = tested on: MALME-3M melanoma
MOLT-4 leukemia = tested on: MOLT-4 leukemia
OVCAR-4 ovarian = tested on: OVCAR-4 ovarian
HOP-92 NSCLC = tested on: HOP-92 NSCLC
NCI-H322M lung = tested on: NCI-H322M lung
SF-295 CNS = tested on: SF-295 CNS
CCRF-CEM leukemia = tested on: CCRF-CEM leukemia
U251 glioblastoma = tested on: U251 glioblastoma
SK-OV-3 ovarian = tested on: SK-OV-3 ovarian
NCI-H23 lung = tested on: NCI-H23 lung
T-47D breast = tested on: T-47D breast
DU-145 prostate = tested on: DU-145 prostate
HT29 colon = tested on: HT29 colon
SNB-75 CNS = tested on: SNB-75 CNS
A549 NSCLC = tested on: A549 NSCLC
SW-620 colon = tested on: SW-620 colon
SK-MEL-2 melanoma = tested on: SK-MEL-2 melanoma
SNB-19 CNS = tested on: SNB-19 CNS
UACC-257 melanoma = tested on: UACC-257 melanoma
UACC-62 melanoma = tested on: UACC-62 melanoma
M14 melanoma = tested on: M14 melanoma
BT-549 breast = tested on: BT-549 breast
OVCAR-5 ovarian = tested on: OVCAR-5 ovarian
ACHN renal = tested on: ACHN renal
PC-3 prostate = tested on: PC-3 prostate
MDA-MB-468 breast = tested on: MDA-MB-468 breast

`CC(C)Cn1cnc2c(N)nc3ccccc3c21` gave a GI50 (OVCAR-8 ovarian) greater than 100 µM, a TGI (OVCAR-8 ovarian) greater than 100 µM and a GI50 (HCT-116 colon) greater than 100 µM. It also gave a TGI (HCT-116 colon) greater than 100 µM, a GI50 (A498 renal) greater than 100 µM and a TGI (A498 renal) greater than 100 µM. It also gave a GI50 (SN12C renal) greater than 100 µM, a TGI (SN12C renal) greater than 100 µM and a GI50 (OVCAR-3 ovarian) greater than 100 µM. It also gave a TGI (OVCAR-3 ovarian) greater than 100 µM, a GI50 (CAKI-1 renal) greater than 100 µM and a TGI (CAKI-1 renal) greater than 100 µM. For the same compound, the GI50 (SK-MEL-28 melanoma) was greater than 100 µM, the TGI (SK-MEL-28 melanoma) was greater than 100 µM and the GI50 (MDA-MB-231 breast) was greater than 100 µM. The TGI (MDA-MB-231 breast) was greater than 100 µM, the GI50 (NCI-H522 lung) was greater than 100 µM and the TGI (NCI-H522 lung) was greater than 100 µM. It also gave a GI50 (IGROV1 ovarian) greater than 100 µM, a TGI (IGROV1 ovarian) greater than 100 µM and a GI50 (HL-60(TB) leukemia) greater than 100 µM. It also gave a TGI (HL-60(TB) leukemia) greater than 100 µM, a GI50 ([…]-0 renal) greater than 100 µM and a TGI (786-0 renal) greater than 100 µM. The GI50 (RPMI-8226 leukemia) was greater than 100 µM, the TGI (RPMI-8226 leukemia) was greater than 100 µM and the GI50 (NCI-H226 lung) was greater than 100 µM. For the same compound, the TGI (NCI-H226 lung) was greater than 100 µM, the GI50 (NCI/ADR-RES ovarian) was greater than 100 µM and the TGI (NCI/ADR-RES ovarian) was greater than 100 µM. It also gave a GI50 (HOP-62 NSCLC) greater than 100 µM, a TGI (HOP-62 NSCLC) greater than 100 µM and a GI50 (TK-10 renal) greater than 100 µM. For the same compound, the TGI (TK-10 renal) was greater than 100 µM, the GI50 (RXF 393 renal) was greater than 100 µM and the TGI (RXF 393 renal) was greater than 100 µM. The GI50 (SF-539 CNS) was greater than 100 µM, the TGI (SF-539 CNS) was greater than 100 µM and the GI50 (EKVX NSCLC) was 67.9 µM. The TGI (EKVX NSCLC) was greater than 100 µM, the GI50 (KM12 colon) was greater than 100 µM and the TGI (KM12 colon) was greater than 100 µM. The GI50 (HCT-15 colon) was greater than 100 µM, the TGI (HCT-15 colon) was greater than 100 µM and the GI50 (UO-31 renal) was greater than 100 µM. The TGI (UO-31 renal) was greater than 100 µM, the GI50 (MCF7 breast) was greater than 100 µM and the TGI (MCF7 breast) was greater than 100 µM. It also gave a GI50 (LOX IMVI melanoma) greater than 100 µM, a TGI (LOX IMVI melanoma) greater than 100 µM and a GI50 (SF-268 CNS) greater than 100 µM. For the same compound, the TGI (SF-268 CNS) was greater than 100 µM, the GI50 (HS 578T breast) was greater than 100 µM and the TGI (HS 578T breast) was greater than 100 µM. For the same compound, the GI50 (MDA-MB-435 melanoma) was greater than 100 µM, the TGI (MDA-MB-435 melanoma) was greater than 100 µM and the GI50 (K-562 leukemia) was greater than 100 µM. For the same compound, the TGI (K-562 leukemia) was greater than 100 µM, the GI50 (MALME-3M melanoma) was greater than 100 µM and the TGI (MALME-3M melanoma) was greater than 100 µM. It also gave a GI50 (MOLT-4 leukemia) greater than 100 µM, a TGI (MOLT-4 leukemia) greater than 100 µM and a GI50 (OVCAR-4 ovarian) greater than 100 µM. It also gave a TGI (OVCAR-4 ovarian) greater than 100 µM, a GI50 (HOP-92 NSCLC) greater than 100 µM and a TGI (HOP-92 NSCLC) greater than 100 µM. The GI50 (NCI-H322M lung) was greater than 100 µM, the TGI (NCI-H322M lung) was greater than 100 µM and the GI50 (SF-295 CNS) was greater than 100 µM. It also gave a TGI (SF-295 CNS) greater than 100 µM, a GI50 (CCRF-CEM leukemia) greater than 100 µM and a TGI (CCRF-CEM leukemia) greater than 100 µM. It also gave a GI50 (U251 glioblastoma) greater than 100 µM, a TGI (U251 glioblastoma) greater than 100 µM and a GI50 (SK-OV-3 ovarian) greater than 100 µM. The TGI (SK-OV-3 ovarian) was greater than 100 µM, the GI50 (NCI-H23 lung) was greater than 100 µM and the TGI (NCI-H23 lung) was greater than 100 µM. The GI50 (T-47D breast) was greater than 100 µM, the TGI (T-47D breast) was greater than 100 µM and the GI50 (DU-145 prostate) was greater than 100 µM. For the same compound, the TGI (DU-145 prostate) was greater than 100 µM, the GI50 (HT29 colon) was greater than 100 µM and the TGI (HT29 colon) was greater than 100 µM. For the same compound, the GI50 (SNB-75 CNS) was greater than 100 µM, the TGI (SNB-75 CNS) was greater than 100 µM and the GI50 (A549 NSCLC) was greater than 100 µM. The TGI (A549 NSCLC) was greater than 100 µM, the GI50 (SW-620 colon) was greater than 100 µM and the TGI (SW-620 colon) was greater than 100 µM. It also gave a GI50 (SK-MEL-2 melanoma) greater than 100 µM, a TGI (SK-MEL-2 melanoma) greater than 100 µM and a GI50 (SNB-19 CNS) greater than 100 µM. It also gave a TGI (SNB-19 CNS) greater than 100 µM, a GI50 (UACC-257 melanoma) greater than 100 µM and a TGI (UACC-257 melanoma) greater than 100 µM. For the same compound, the GI50 (UACC-62 melanoma) was greater than 100 µM, the TGI (UACC-62 melanoma) was greater than 100 µM and the GI50 (M14 melanoma) was greater than 100 µM. For the same compound, the TGI (M14 melanoma) was greater than 100 µM, the GI50 (BT-549 breast) was greater than 100 µM and the TGI (BT-549 breast) was greater than 100 µM. The GI50 (OVCAR-5 ovarian) was greater than 100 µM, the TGI (OVCAR-5 ovarian) was greater than 100 µM and the GI50 (ACHN renal) was greater than 100 µM. It also gave a TGI (ACHN renal) greater than 100 µM, a GI50 (PC-3 prostate) greater than 100 µM and a TGI (PC-3 prostate) greater than 100 µM. The GI50 (MDA-MB-468 breast) was greater than 100 µM and the TGI (MDA-MB-468 breast) was greater than 100 µM.
